Results on 14 molecules are retold here after ChEMBL document CHEMBL1201862, “PubChem BioAssay data set” (2004).

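Five compound concentrations were applied to cells in 96-well plates for 48 hours; endpoints were derived by simple linear interpolation of the resulting dose-response curve. At the GI50, growth is halved.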 Active and inactive are the calls of the source. No stated cut-off is given here; in the data, active = GI50 up to about 1.1 µM and inactive = higher. Some results are limits rather than exact numbers.

Some test systems named below: COLO 205; DLD-1; DMS-114; DMS-273; HCC 2998; HOP-18; HOP-62; KM-20L2; M19-MEL; MCF7; NCI-H460; NCI/ADR-RES; XF498; 786-0; ACHN; LXFL 529; M14; TK-10; SNB-78; Hs-578T.
Holding throughout (assay): NCI-60 cell line screen, 48 h

Consider `O=[N+]([O-])c1cccc2c1[nH]c1c(-c3ccccc3)nccc12`, for which the GI50 was 2.02 µM (inactive) in the assay on COLO 205; 2.85 µM (inactive) with DLD-1; 1.27 µM (inactive) with DMS-114; 2.43 µM (inactive) with DMS-273; 3.31 µM (inactive) with HCC 2998; 0.274 µM (active) with HOP-18. For the same molecule, the GI50 with HOP-62 was 1.87 µM (inactive); in the assay with KM-20L2 it was 2.45 µM (inactive); in the assay with M19-MEL it was 2.07 µM (inactive); in the assay on MCF7, 2.33 µM (inactive); with NCI-H460 it was 2.33 µM (inactive); with NCI/ADR-RES, 1.63 µM (inactive). In the assay on XF498, the GI50 was 2.65 µM (inactive).

`O=C1C2CN(Cc3ccccc3)CC1CN(CC1CC1)C2`: the GI50 in the assay with 786-0, in the assay with ACHN, in the assay with COLO 205, with DMS-114, with DMS-273 and in the assay on HOP-18 was > 100 µM (inactive) in each case. In addition, the GI50 in the assay on HOP-62, in the assay on KM-20L2, in the assay with LXFL 529, in the assay with M14, in the assay on M19-MEL and in the assay on NCI-H460 was > 100 µM (inactive) each time. Also, the GI50 with TK-10 and in the assay with XF498 was > 100 µM (inactive) throughout.

`O=C(O)CCCNS(=O)(=O)c1ccc2ccccc2c1`: the GI50 in the assay with 786-0, in the assay with ACHN, with COLO 205, in the assay on DLD-1, in the assay with DMS-273 and with HCC 2998 was > 100 µM (inactive) each time. Moreover, the GI50 in the assay on HOP-18, with KM-20L2, with LXFL 529, in the assay with M14, with M19-MEL and in the assay on NCI-H460 was > 100 µM (inactive) each time. For the same molecule, the GI50 in the assay with TK-10 and in the assay with XF498 was > 100 µM (inactive) in each case.

In the case of `CN(CCO)/N=N/c1n[nH]cc1C(N)=O`, the GI50 with COLO 205, in the assay on DLD-1, in the assay on DMS-114, with DMS-273, with HCC 2998 and in the assay on HOP-18 was > 100 µM (inactive) throughout. For the same molecule, the GI50 in the assay on KM-20L2 is > 86.7 µM (inactive); in the assay on M19-MEL, > 100 µM (inactive); with MCF7 it was > 100 µM (inactive); with NCI-H460 it was > 100 µM (inactive); in the assay on NCI/ADR-RES it was > 100 µM (inactive); with SNB-78, > 100 µM (inactive). Moreover, the GI50 with XF498 is > 100 µM (inactive).

Take `Cc1cc(C)c2c(=N)c3ccccc3n(CCCCCCn3c4ccccc4c(=N)c4c(C)cc(C)nc43)c2n1`: the GI50 in the assay on 786-0 is 0.224 µM (active); with ACHN, 1.55 µM (inactive); in the assay with COLO 205 it was 1.57 µM (inactive); with HCC 2998 it was 0.172 µM (active); in the assay on HOP-62 it was 0.598 µM (active); in the assay with Hs-578T, 1.66 µM (inactive). The GI50 was 1.85 µM (inactive) with M14; 0.435 µM (active) in the assay on MCF7; 0.859 µM (active) in the assay with NCI-H460; 1.42 µM (inactive) with NCI/ADR-RES; 1.64 µM (inactive) in the assay with TK-10.

As to `COc1ccc2oc(=N)c(C(=O)Nc3ccccc3)cc2c1`, the GI50 in the assay on 786-0 is 3.09 µM (inactive); with ACHN, 13.7 µM (inactive); in the assay with COLO 205, 30.1 µM (inactive); with HOP-62 it was 15.8 µM (inactive); in the assay on Hs-578T, 15 µM (inactive); with M14 it was 38.1 µM (inactive). The GI50 in the assay on MCF7 is 12.8 µM (inactive); in the assay with NCI-H460, 45.5 µM (inactive); in the assay with NCI/ADR-RES, 16.9 µM (inactive); with TK-10, 57.5 µM (inactive).

`COc1ccc(CC(N)=O)cc1OC`: the GI50 with COLO 205 is > 1250 µM (inactive); in the assay on DLD-1 it was > 1250 µM (inactive); in the assay with DMS-114, > 1250 µM (inactive); in the assay on DMS-273 it was > 1250 µM (inactive); with HCC 2998 it was > 1250 µM (inactive); with HOP-18, 881 µM (inactive). The GI50 was > 818 µM (inactive) in the assay on HOP-62; > 1140 µM (inactive) with KM-20L2; > 1250 µM (inactive) with M19-MEL; > 1250 µM (inactive) with MCF7; > 1250 µM (inactive) with NCI-H460; > 1250 µM (inactive) with NCI/ADR-RES. The GI50 was > 1250 µM (inactive) in the assay on SNB-78 and > 879 µM (inactive) in the assay with XF498.

Turning to `COc1cc([C@@H]2c3cc4c(cc3[C@@H](OC3OC5COC(C)OC5C(O)C3O)[C@H]3COC(=O)[C@H]23)OCO4)cc(OC)c1O` (stereo partly specified), the GI50 in the assay with COLO 205 was 40.3 µM (inactive); in the assay on DLD-1, 37.2 µM (inactive); with DMS-114, 5.57 µM (inactive); with DMS-273, 1.97 µM (inactive); in the assay with HCC 2998 it was 9.02 µM (inactive); with HOP-18, 28.3 µM (inactive). Moreover, the GI50 in the assay with HOP-62 was 1.97 µM (inactive); with Hs-578T it was 0.735 µM (active); in the assay with KM-20L2 it was 70.8 µM (inactive); in the assay on LXFL 529, 26.5 µM (inactive); in the assay on M19-MEL, 34.7 µM (inactive); with NCI-H460, 0.533 µM (active). Besides, the GI50 is 65.5 µM (inactive) with NCI/ADR-RES, 46.8 µM (inactive) in the assay with SNB-78 and 8.41 µM (inactive) in the assay on XF498.

Take `CC(=O)NC1C(O)CC(OCCCSCCN)(C(=O)O)OC1C(O)C(O)CO` (stereo unspecified): the GI50 in the assay with ACHN, in the assay on COLO 205, with DLD-1, with DMS-114, in the assay on DMS-273 and with HCC 2998 was > 100 µM (inactive) throughout. Also, the GI50 in the assay on HOP-18, in the assay with KM-20L2, with LXFL 529, in the assay with M14, in the assay on NCI-H460 and with SNB-78 was > 100 µM (inactive) throughout. The GI50 in the assay with TK-10 and in the assay on XF498 was > 100 µM (inactive) each time.

On to `O=C(CC1OC(O)C(Cl)=C1Cl)c1cccnc1` (stereo unspecified), for which the GI50 is > 41.5 µM (inactive) with 786-0; > 31.6 µM (inactive) in the assay with ACHN; > 100 µM (inactive) in the assay on COLO 205; > 41.1 µM (inactive) in the assay with DMS-114; > 53 µM (inactive) in the assay with DMS-273; > 71.8 µM (inactive) with HCC 2998. For the same molecule, the GI50 was > 100 µM (inactive) in the assay on HOP-18; > 50.2 µM (inactive) in the assay on HOP-62; > 100 µM (inactive) in the assay with KM-20L2; > 56.1 µM (inactive) in the assay on LXFL 529; > 100 µM (inactive) in the assay with M14; > 62.4 µM (inactive) in the assay with M19-MEL. Moreover, the GI50 in the assay with NCI-H460 was > 73.5 µM (inactive); with SNB-78, > 100 µM (inactive); with TK-10, > 100 µM (inactive); in the assay with XF498, > 100 µM (inactive).

For the molecule `OCC#CCNCl`, the GI50 with COLO 205, in the assay on DLD-1, with DMS-114, with DMS-273, with HCC 2998 and in the assay on HOP-18 was > 100 µM (inactive) each time. Moreover, the GI50 in the assay with HOP-62, in the assay with KM-20L2, in the assay with M19-MEL, in the assay with MCF7, in the assay with NCI-H460 and in the assay on NCI/ADR-RES was > 100 µM (inactive) in each case. The GI50 with SNB-78 is > 100 µM (inactive); in the assay with XF498, > 53.1 µM (inactive).

Regarding `COC(=O)C(Cc1cc(OC)c(OC)c(OC)c1)(NC(=O)c1ccccc1)P(=O)(OC)OC` (stereo unspecified), the GI50 in the assay with ACHN, with COLO 205, in the assay with DLD-1, in the assay on DMS-114, in the assay on DMS-273 and in the assay on HCC 2998 was > 100 µM (inactive) in each case. Moreover, the GI50 in the assay with HOP-62, in the assay on KM-20L2, with LXFL 529, in the assay on M14, with M19-MEL and in the assay with NCI-H460 was > 100 µM (inactive) in each case. Further, the GI50 in the assay on SNB-78, in the assay on TK-10 and in the assay with XF498 was > 100 µM (inactive) in each case.

With `CCOC(=O)C(C#N)(Cc1c[nH]c2ccccc12)NC(C)=O` (stereo unspecified), the GI50 in the assay with ACHN, in the assay with COLO 205, with DLD-1, in the assay on DMS-114, in the assay with DMS-273 and with HCC 2998 was > 100 µM (inactive) throughout. The GI50 in the assay on HOP-62, in the assay on KM-20L2, with LXFL 529, with M14, in the assay on M19-MEL and with NCI-H460 was > 100 µM (inactive) throughout. In addition, the GI50 in the assay with TK-10 is > 100 µM (inactive).

In the case of `O=C(O)CNc1ccc(Cl)c(Cl)c1`, the GI50 was 24.7 µM (inactive) with 786-0; 20 µM (inactive) with ACHN; 18.5 µM (inactive) in the assay on COLO 205; 24 µM (inactive) with HOP-62; 33.6 µM (inactive) in the assay on Hs-578T; 27.4 µM (inactive) with M14. The GI50 in the assay on MCF7 was 13.9 µM (inactive); in the assay with NCI-H460 it was 23.6 µM (inactive); in the assay with NCI/ADR-RES it was 28.6 µM (inactive); with TK-10, 20 µM (inactive).
